Laboratory results taken from US20090288227A1, “Improvements in or Relating to Starch Storage in Plants” (University of Durham, priority 2006, published 2009).
Marks after values point to notes of the source that are not given here.

Columns and labels:
Type in all cases: in vivo, Arabidopsis thaliana
tnp seedlings = experiment: Penetrance of the tnp phenotype in seedlings germinated and grown on medium containing the compound; conditions: for effect on penetrance of the tnp phenotype: tnp seed germinated and grown in presence of the compound, result in words
Experimental: In order to establish whether the incomplete penetrance was due to methylation-dependent gene silencing, individual T3 sibling lines were germinated in the presence of 100 μM 5-azacytidine, a methylation inhibitor (Jones and Taylor, 1980 Cell 20, 85-93). […]
The tnp mutant phenotype is similar to that of the pkl mutant, which is characterised by the development of swollen and greenish roots that accumulate triacylglycerols and protein bodies (Ogas et al, 1997 Science 277, 91-94; Ogas et al, 1999 Proc. Natl. Acad. Sci. USA 96, 13839-13844). The penetrance of the pkl mutant phenotype is also variable and is affected by gibberellic acid and the gibberellin biosynthesis inhibitor, uniconazole-P. In order to determine whether growth factors have an effect on the penetrance of the tnp phenotype, the tnp seed was germinated and grown in the presence of a number of compounds (see Table 2).
Given the large quantities of starch stored in tnp, the effect of sugars on penetrance was examined. […] Furthermore, the effect of 1% glucose or fructose was not as potent as the effect obtained from sucrose alone. […] The effect of sugars on the penetrance of tnp was not due to an osmotic effect, since mannitol was ineffective at inducing penetrance in the absence of sugar (data not shown).

FUS3 transcript = experiment: Semi-quantitative RT-PCR of FUS3 transcript in treated tnp seedlings; conditions: tnp seedlings at 1-2 days post-germination
From the text: (§1) Alternatively, it is possible that these compounds may act by changing the expression of other key embryonic regulators to alter penetrance. FUS3 and LEC2 play key roles in embryogenesis and the transition to germination (Luerben et al, 1998 Plant J. 15, 755-764; Stone et al, 2001 Proc. Natl. Acad. Sci. USA 98, 11806-11811; Kroj et al, 2003 Development 130, 6065-6073). Semi-quantitative RT-PCR was used to determine whether the transcript levels in these genes were affected in tnp seedlings at 1-2 days post-germination in response to treatment with these compounds (see FIG. 10b).

LEC2 transcripts = experiment: Semi-quantitative RT-PCR of LEC2 transcript in treated tnp seedlings; conditions: tnp seedlings at 1-2 days post-germination
From the text: as §1

LEC1 transcript = experiment: Semi-quantitative RT-PCR of LEC1 transcript in treated germinating seedlings; conditions: tnp and pls control seedlings, RNA at 1-2 days post-germination
Experimental: To investigate the mechanism by which these compounds work, germinating seedlings were treated with each of the compounds, as well as with gibberellic acid (which has no effect on penetrance), and RNA was extracted at 1-2 days post-germination. […] Therefore, the effect of these compounds on penetrance is not mediated by alterations in LEC1 transcript levels, although post-transcriptional or translational effects cannot be excluded.

[1] = Table 2 second series (1/2MS10 control 47.8), 10 nM
[2] = Table 2 second series (1/2MS10 control 47.8), 100 nM
[3] = Table 2 first series (1/2 MS10 control 32.8), 10 nM
[4] = Table 2 second series (1/2MS10 control 47.8), 1 μM
[5] = Table 2 first series (1/2 MS10 control 32.8), 10 uM

## CC(C)(C)[C@@H](O)[C@@H](Cc1ccc(Cl)cc1)n1cncn1 (racemic) [Paclobutrazol, paclobutrazol]
Tnp seedlings; [1]
  % tnp: 84.7%
Tnp seedlings; [2]
  % tnp: 72.3* %
Tnp seedlings
  effect on penetrance of the tnp phenotype: increased
FUS3 transcript
  FUS3 transcript levels: did not have a significant effect
LEC2 transcripts
  levels of LEC2 transcripts: no effect
LEC1 transcript
  LEC1 transcript levels: unaltered

## O=C(O)COc1ccc(Cl)cc1Cl [2,4-D, 2,4-dichlorophenoxyacetic acid]
Tnp seedlings; 0% suc. + 10 nm 2,4-D
  % tnp: 2%
Tnp seedlings; 1% suc. + 10 nm 2,4-D
  % tnp: 85.1%
Tnp seedlings; 2% suc. + 10 nm 2,4-D
  % tnp: 92.3%
Tnp seedlings; 3% suc. + 10 nm 2,4-D
  % tnp: 84.1%
Tnp seedlings; 4% suc. + 10 nm 2,4-D
  % tnp: 68.9%
Tnp seedlings; 5% suc. + 10 nm 2,4-D
  % tnp: 82.4%
Tnp seedlings; 6% suc. + 10 nm 2,4-D
  % tnp: 66.0%
Tnp seedlings; [3]
  % tnp: 78.1%
Tnp seedlings; [1]
  % tnp: 82.1%
Tnp seedlings; [2]
  % tnp: 95.3%
Tnp seedlings; [4]
  % tnp: 98.2%
Tnp seedlings; addition of 10 nM 2,4-D to the medium, even in absence of sucrose
  tnp penetrance compared with sucrose alone: greater penetrance
Tnp seedlings; concentration of 1 μM
  penetrance of the tnp phenotype: ~100%
Tnp seedlings; medium containing 20% sucrose and 25 nM 2,4-D, no effect on growth
  penetrance of tnp: highest penetrance
Tnp seedlings
  effect on penetrance of the tnp phenotype: positive effect
FUS3 transcript
  FUS3 transcript levels: increase
LEC2 transcripts
  levels of LEC2 transcripts: significantly reduce

## Nc1ncn([C@@H]2O[C@H](CO)[C@@H](O)[C@H]2O)c(=O)n1 [5-AZA-C, 5-azacytidine]
Tnp seedlings; T3 Line 1, 100 μm 5-AZA-C, 1/2MS10 control 28
  % tnp: 62%
Tnp seedlings; T3 Line 7, 100 μM 5-AZA-C, 1/2MS10 control 0
  % tnp: 7.4%
Tnp seedlings; T3 Line 21, 100 μM 5-AZA-C, 1/2MS10 control 41
  % tnp: 48%
Tnp seedlings; T3 sibling lines germinated in presence of 100 μM, highly variable between lines
  penetrance of the tnp phenotype compared with control levels: increase in the penetrance

## CC1=CC(=O)CC(C)(C)[C@@]1(O)/C=C/C(C)=C\C(=O)O [ABA, abscisic acid]
Tnp seedlings
  effect on penetrance of the tnp phenotype: not found to have an effect

## NC1(C(=O)O)CC1 [ACC, 1-aminocyclopropane-1-carboxylate]
Tnp seedlings; Table 2 first series (1/2 MS10 control 32.8), 100 pM
  % tnp: 29.3%
Tnp seedlings
  effect on penetrance of the tnp phenotype: little effect

## c1ccc(CNc2ncnc3nc[nH]c23)cc1 [BA, N(6)-benzyladenine]
Tnp seedlings; Table 2 first series (1/2 MS10 control 32.8), 100 nM
  % tnp: 9.9%
Tnp seedlings; [1]
  % tnp: 55%
Tnp seedlings; [2]
  % tnp: 35.6%
Tnp seedlings; [4]
  % tnp: 5%
Tnp seedlings
  effect on penetrance of the tnp phenotype: markedly suppressed
FUS3 transcript
  FUS3 transcript levels: reduction
LEC2 transcripts
  levels of LEC2 transcripts: significantly reduce

## C=C1C[C@]23C[C@@]1(O)CC[C@H]2[C@@]12C=C[C@H](O)[C@@](C)(C(=O)O1)[C@H]2[C@@H]3C(=O)O [GA, gibberellic acid]
Tnp seedlings; 10 nM paclobutrazol and 10 μM gibberellic acid together, data not shown
  effect on the positive effect of paclobutrazol on tnp penetrance: partially suppressed
Tnp seedlings; [5]
  % tnp: 37.3%
Tnp seedlings; [1]
  % tnp: 42.1%
Tnp seedlings; [2]
  % tnp: 52%
Tnp seedlings; [4]
  % tnp: 58.4%
Tnp seedlings; Table 2 second series (1/2MS10 control 47.8), 10 μM
  % tnp: 45.4%
Tnp seedlings
  effect on penetrance of the tnp phenotype: weakly positive effect
FUS3 transcript
  FUS3 transcript levels: did not have a significant effect
LEC2 transcripts
  levels of LEC2 transcripts: significantly reduce
LEC1 transcript
  LEC1 transcript levels: unaltered

## O=C(O)Cc1c[nH]c2ccccc12 [IAA, indole-3-acetic acid]
Tnp seedlings; Table 2 first series (1/2 MS10 control 32.8), 50 nM
  % tnp: 69.1%
Tnp seedlings
  effect on penetrance of the tnp phenotype: positive effect

## O=C(O)Cc1cccc2ccccc12 [NAA, naphthaleneacetic acid]
Tnp seedlings; [3]
  % tnp: 42.8%

## O=C(O)COc1cccc2ccccc12 [NOA, naphthoxyacetic acid]
Tnp seedlings; [5]
  % tnp: 58.8%
Tnp seedlings
  effect on penetrance of the tnp phenotype: positive effect

## O=C(O)c1ccccc1C(=O)Nc1cccc2ccccc12 [NPA, 1-N-naphthylphthalamic acid]
Tnp seedlings; [5]
  % tnp: 55.4%
Tnp seedlings
  effect on penetrance of the tnp phenotype: positive effect

## O=C(CO)[C@@H](O)[C@H](O)[C@H](O)CO [fructose]
Tnp seedlings; 1% sugar, data not shown
  effect on tnp penetrance compared with sucrose alone: not as potent

## OC[C@@H](O)[C@@H](O)[C@H](O)[C@H](O)CO [mannitol]
Tnp seedlings; osmotic control, data not shown
  inducing tnp penetrance in the absence of sugar: ineffective

## OC[C@H]1O[C@@](CO)(O[C@H]2O[C@H](CO)[C@@H](O)[C@H](O)[C@H]2O)[C@@H](O)[C@@H]1O [suc., sucrose]
Tnp seedlings; 1% suc. in medium
  % tnp: 60.5%
Tnp seedlings; 2% suc. in medium
  % tnp: 65.4%
Tnp seedlings; 3% suc. in medium
  % tnp: 58.4%
Tnp seedlings; 4% suc. in medium
  % tnp: 52.4%
Tnp seedlings; 5% suc. in medium
  % tnp: 54.1%
Tnp seedlings; 6% suc. in medium
  % tnp: 42.8%
Tnp seedlings; concentration of 2% sucrose
  level of tnp penetrance over sucrose concentrations: highest level of penetrance
